Assay: xn = mol fraction of the nth substance listed
Settings: 101.3 kPa, Liquid, fixed-path interferometer

CCOCCCN [3-ethoxy-1-propanamine] + O
speed of sound [m/s]
Settings | 283.15 K | 288.15 K | 293.15 K | 298.15 K | 303.15 K
x1 = 0.0001081 | 1448.8 | 1466.3 | 1483.4 | 1497.2 | 1509.6
x1 = 0.0003191 | 1450 | 1467.4 | 1484.5 | 1498 | 1510.4
x1 = 0.0006252 | 1451.8 | 1469.1 | 1486 | 1499.4 | 1511.6
x1 = 0.000707 | 1452.2 | – | – | – | –
x1 = 0.0009424 | 1453.7 | 1470.9 | 1486.9 | 1500.9 | 1512.8
x1 = 0.001046 | 1454.2 | – | – | – | –
x1 = 0.001284 | 1455.6 | 1472.6 | 1489.1 | 1502.2 | 1514.2
x1 = 0.001947 | 1459.5 | 1476.2 | 1491.7 | 1505.4 | 1516.8
x1 = 0.002912 | 1465.1 | 1481.3 | 1496.4 | 1509.6 | 1520.7
x1 = 0.00392 | 1470.9 | 1486.6 | 1501.2 | 1514 | 1524.7
x1 = 0.005098 | 1477.6 | 1492.8 | 1506.8 | 1519 | 1529.2
x1 = 0.007456 | 1491 | 1505 | – | – | –
x1 = 0.00981 | 1504 | 1516.7 | 1528.6 | 1538.8 | 1547.2
x1 = 0.0148 | 1530.2 | 1540.6 | 1550.3 | 1558.4 | 1565
x1 = 0.01956 | 1554 | 1562.9 | 1569.7 | 1576 | 1580.7
x1 = 0.02832 | 1594.2 | 1599 | 1602.1 | 1604.7 | 1606.4
x1 = 0.03914 | 1636.5 | 1636.7 | 1635.3 | 1633.7 | 1631.8
x1 = 0.05082 | 1672.1 | 1668 | 1662.5 | 1657.2 | 1651.3
x1 = 0.06674 | 1704.8 | 1695.7 | 1685.7 | 1676.2 | 1666.3
x1 = 0.09536 | 1724 | 1709.3 | 1695.7 | 1681.6 | 1667.7
x1 = 0.1209 | 1715.9 | 1700.4 | 1684.2 | 1668.3 | 1653.1
x1 = 0.1452 | 1699.3 | 1682.6 | 1666.7 | 1650.2 | 1633.9
x1 = 0.1844 | 1669 | 1651.6 | 1634.3 | 1617.3 | 1600.4
x1 = 0.2121 | 1645.8 | 1627.7 | 1610.5 | 1593.4 | 1576.1
x1 = 0.2438 | 1623.7 | 1604.4 | 1587.9 | 1569.9 | 1552.3
x1 = 0.2923 | 1593 | 1575 | 1557.5 | 1539.4 | 1521.5
x1 = 0.361 | 1556.4 | 1535.7 | 1518.2 | 1499.2 | 1480.9
x1 = 0.4369 | 1524.2 | 1504.5 | 1485.9 | 1466.9 | 1448.1
x1 = 0.493 | – | – | 1461.7 | 1442.5 | –
x1 = 0.4937 | 1501.5 | 1481 | 1461.8 | 1442.6 | 1423.4
x1 = 0.5513 | 1482.2 | 1461.9 | 1442.2 | 1422.7 | 1403.3
x1 = 0.6214 | 1462.5 | 1441.5 | 1421.8 | 1402 | 1382.3
x1 = 0.6775 | 1448.2 | 1426.9 | 1407.3 | 1386.7 | 1366.7
x1 = 0.6943 | 1444.5 | 1423.4 | 1402.9 | 1383.1 | 1363.1
x1 = 0.7458 | 1432.9 | 1411.3 | 1391.1 | 1370.8 | 1350.5
x1 = 0.7733 | 1427.7 | – | 1385.3 | 1365.2 | 1344.8
x1 = 0.7947 | 1422.9 | 1401.1 | 1380.6 | 1360.2 | 1339.8
x1 = 0.8276 | 1416.8 | 1395.1 | 1374.1 | 1353.6 | 1333.2
x1 = 0.8488 | 1412.3 | 1390.7 | – | 1349.3 | –
x1 = 0.8744 | 1408.1 | – | 1365.1 | 1344.6 | 1324
x1 = 0.8993 | 1403 | 1381.5 | 1360 | 1339.3 | 1319.2
x1 = 0.9189 | 1399.9 | 1378 | 1356.7 | 1335.6 | 1315.1
x1 = 0.9349 | – | 1375 | – | – | –
x1 = 0.9411 | 1395.9 | – | 1352.4 | 1331.8 | 1311.1
x1 = 0.9436 | – | 1373.5 | – | – | –
x1 = 0.9486 | 1394.8 | – | 1351.3 | 1330.7 | 1309.8
x1 = 0.9551 | – | 1371.3 | – | – | –
x1 = 0.9601 | 1392.6 | 1370.4 | – | – | –
x1 = 0.9613 | – | – | 1349 | 1327.9 | 1307.3
x1 = 0.9746 | – | 1367.5 | – | 1325.7 | 1304.7
x1 = 0.9755 | – | 1367.8 | – | – | –
x1 = 0.985 | 1391 | 1366.2 | – | – | –
x1 = 0.9871 | – | – | 1344.3 | 1321.5 | 1302.4
x1 = 1 | 1386.4 | 1364.2 | 1342 | 1321.2 | 1300.4
